Legend:
[1] = test system: Jagged1; assay: Jagged1 mRNA by real time RT-PCR in UMR106 cells; assay type: cell-based; conditions: UMR106 cells, PGE2 10^−7 M, at 2 hours, corrected for beta-actin
Experimental: UMR 106 cells were serum starved for 24 hours and then treated with a single dose of vehicle (controls) or PGE2 at a concentration of 10^-7 M. RNA was collected from both control and treated samples to assess the fold change in Jagged1 mRNA by real time RT-PCR analysis corrected for by beta-actin. FIG. 1B is a Western blot showing total protein that was collected from both control and treated samples exposed to Jagged1 antibody, C20. Positive control (+ctr) was provided by HS27a cells, a human stromal cell line with high levels of Jagged1 protein, while HS5 cells from a human stromal cell line with minimal Jagged1 levels were used as a negative control. […] UMR106 cells were serum starved for 24 hours. They were pre-treated with H89 for 30 minutes followed by a single dose of PGE2 at 10^-7 M or vehicle. RNA was collected from both control and treated samples to assess the fold change in Jagged1 RNA by real time RT-PCR analysis corrected for by β-actin. […] UMR106 cells were serum starved for 24 hours. […] Total protein was collected from both PGE2 and vehicle treated samples for Western blot analysis with Jagged1 antibody C-20. UMR106 cells were grown in DMEM supplemented with 1.5 g/l sodium bicarbonate, 10% FBS, penicillin (100 U/ml), streptomycin (100 U/ml). After three days of growth the cells were 80% confluent and media was replaced with serum-free media. After 24 hr in serum-free media, PGE2 was added in noted concentrations. UMR 106 cells were treated with the Protein Kinase A (PKA) inhibitors H89 (0.5 hr prior to PGE2 treatment), and myristoylated PKI (0.5 hr prior to PGE2 treatment). […] At the designated times, total RNA and protein were harvested. Total RNA was extracted and analyzed by real time RT-PCR, normalizing for β-actin expression and t=0. Total protein was analyzed by Western blots performed using the […] system (Invitrogen, Carlsbad, Calif.). Blots were probed with Jag1 c-20 antibody (Santa Cruz Biotechnology, Inc., Santa Cruz, Calif.), and the loading control was B-actin.

[2] = test system: intermediate progenitors of hematopoietic stem cells; assay: Colony forming unit-cell (CFU-C) assay of bone marrow mononuclear cells from treated mice; assay type: in vivo
Description: (§1) FIG. 8 is a graph showing that intermediate progenitors of hematopoietic stem cells are not increased by PGE2 treatment. Therefore, PGE2 specifically increases HSCs. The bone marrow mononuclear cells from mice treated with vehicle and PGE2 using colony forming unit-cell (CF-C) activity in vitro. […] Peripheral white blood cell and hematocrit levels were not changed in PGE2 vs. vehicle treated mice at 16 days (WBC counts: vehicle averaged 5.75±0.20×10^3/μl; PGE2 averaged 4.72±0.61×10^3/μl) (Hematocrit: vehicle averaged 42±1%; PGE2 averaged 43±2%) (n=6 for each treatment group).
(§2) FIG. 8 is a graph showing that intermediate progenitors of hematopoietic stem cells are not increased by PGE2 treatment. Therefore, PGE2 specifically increases HSCs. The bone marrow mononuclear cells from mice were treated with vehicle and PGE2 to determine if there was an increase in intermediate progenitors in response to PGE2 using the colony forming unit-cell (CFU-C) assay. […] In addition, peripheral white blood cell and hematocrit levels were not changed in PGE2 vs. vehicle treated mice at 16 days (WBC counts: vehicle averaged 5.75±0.20×10^3/μl; PGE2 averaged 4.72±0.61×10^3/μl) (Hematocrit: vehicle averaged 42±1%; PGE2 averaged 43±2%) (n=6 for each treatment group).
The opposite limb of the same mice was used for flow cytometric analysis, in vitro progenitor CFU-C assays and competitive repopulation. […]

[3] = test system: HES1; assay: Notch target gene HES1 expression by real time RT-PCR; assay type: cell-based; conditions: UMR 206 cells, PGE2 treatment, starting at 24 hours
Experimental: FIG. 3 is a graph showing that PGE2 treatment in UMR 206 cells increased expression of the Notch target gene HES1 as determined by real time RT-PCR analysis starting at 24 hours.
At the designated times, total RNA and protein were harvested. Total RNA was extracted and analyzed by real time RT-PCR, normalizing for β-actin expression and t=0. Total protein was analyzed by Western blots performed using the XCELL SURELOCK™ system (Invitrogen, Carlsbad, Calif.). Blots were probed with Jag1 c-20 antibody (Santa Cruz Biotechnology, Inc., Santa Cruz, Calif.), and the loading control was B-actin.

[4] = design: species or system mice; conditions: mouse, in vivo
Description: as §1, §2

[5] = test system: ST-HSC / LT-HSC activity; assay: Colony Forming Unit-Spleen (CFU-S) assay; assay type: in vivo, mice
Description: FIG. 13A show CFU-S images of selected spleens after fixation. FIGS. 13B and 13C are graphs showing quantification of colonies per spleen at days 8 (FIG. 13B) and 10 (FIG. 13C) after transplantation.
ST vs LT-HSC activity can also be quantified by the in vivo clonogenic Colony Forming Unit-Spleen (CFU-S) assay, where day 8 CFU-S is closely associated with ST-HSC, while day 10-12 CFU-S are associated with LT-HSC activity.

[6] = test system: lethally irradiated recipient mice; assay: Survival of lethally irradiated recipients of suboptimal BMMC from treated donors; assay type: in vivo
Description: FIGS. 14A and 14B are graphs showing survival analysis by the method of Kaplan-Meyer in lethally irradiated recipients of suboptimal BMMC (1.5×10^5 donor BMMC (A) and 0.75×10^5 donor BMMC (B)) from vehicle or PGE2-treated donors.
Moreover, since ST-HSC confer radioprotection, PGE2-dependent ST-HSC expansion would be expected to improve survival of lethally irradiated recipients receiving limiting numbers of BMMC from PGE2 vs vehicle-treated mice. To test this hypothesis, adult C57Bl/6 donor mice were treated with PGE2 or vehicle prior to bone marrow harvest. Recipient mice received myeloablative doses of radiation and suboptimal BMMC numbers (FIGS. 14A and 14B).

CCCCC[C@H](O)/C=C/[C@H]1[C@H](O)CC(=O)[C@@H]1C/C=C\CCCC(=O)O [PGE2, Prostaglandin E2]
Jagged1 mRNA increase compared to vehicle [1]: up to 5 fold | CFU-C frequency ([2]; BMMC from C57Bl/6 mice treated 16 days, Example 2): No evidence of PGE2 effects | CFU-C frequency ([2]; BMMC from treated mice, Example 1): did not increase | expression of the Notch target gene HES1 [3]: increased | Hematocrit [4]: 43±2% | peripheral platelets [4]: not changed | CFU-Sd8 ([5]; day 8, BMMC from treated mice, n=4, p=0.0053): 10.5 CFU-S per 60,000 BMMC | CFU-Sd10 ([5]; day 10, BMMC from treated mice, n=6, p=0.4950): 12.5 CFU-S per 60,000 BMMC | survival 30 days after transplantation ([6]; 75,000 donor cells from treated donors, p=0.0173): 53% | survival 30 days after transplantation ([6]; 150,000 donor cells from treated donors, p=0.0018): 80%

Source: US9394520B2, “Expansion of hematopoietic stem cells” (University of Rochester, priority 2006, dated 2016)
